Results from patent US20230026163A1, “ANTICANCER COMPOUND AND MEDICAL USE THEREOF” (ASCENTAWITS PHARMACEUTICALS, LTD., priority 2019, published 2023).

How the values were obtained:
[1] = Plasma stability, rat; format: in vitro ADME
Protocol: (§1) Frozen plasma was melted immediately in a water bath at 37° C. […] The supernatants were collected into new tubes, respectively. pH values of the plasma were checked and recorded. Note: a, no more 2 times melted plasma was used since the sample was received; b, the plasma in pH 7 to pH 8 was used.
(§2) 1 mM of working solution of the test compounds and the control compound, propantheline, were prepared in DMSO. 1 mM of working solution of the control compound in […] was prepared in acetonitrile. 4 μL of the working solutions were added to 796 μL of pre-incubated plasma respectively to achieve a final concentration of 5 μM. The final concentration of solvent was 0.5%.
(§3) […] The test was performed in duplicate. […] 50 μL of the labeled plasma was added to new tubes containing 300 μL of the quench solution of room temperature, i.e., the sample with a preparation time of 0. The samples were vortexed to mix for 5 minutes. […] 100 μL of the supernatant was transferred to new plates.

[2] = Plasma stability, dog; format: in vitro ADME
Protocol: as §1, §2, §3

[3] = tested on: AA8; assay: Cytotoxicity on cell lines of different species: AA8; format: cell-based
[4] = Plasma stability, mouse; format: in vitro ADME
Protocol: as §1, §2, §3

[5] = tested on: H460 cell line; assay: Hypoxia-dependent cytotoxicity experiment (2 hours exposure, air or N2, CTG); format: cell-based; conditions: Homo sapiens, then 3 days
Protocol: To determine the effect of the compounds of the present disclosure on cancer cell proliferation, these compounds were tested for cancer cell anti-proliferative activity in a porous CTG-based assay. Cell growth was compared in the present (treatment groups) and the absence of the test compound. 10,000 cells/well/495 μL of medium was used to test the following cell line, a human tumor cell line of H460 non-small cell lung cancer. The cells were seeded on glass-inserts located in each well of 24-well plates with a density and medium as specified above. 24 hours later, the plates were divided into 2 groups, hypoxia (using N2) group and air group. TH-302 at the concentrations from 100, 10, 0.1 to 0.01 μM, and the test compounds at the concentrations from 10, 1, 0.1, 0.01, 0.001 to 0.0001 were added to each well (500 μL volume) of the treatment groups. The final DMSO concentration in each well was lower than or equal to 1%. The cells in the hypoxia group were incubated for 2 hours in an ELECTROTEK hypoxia workstation. The cells in the air group were incubated for 2 hours in a standard culture incubator. 2 hours later, the test compounds were removed from each well. The cells were washed with 500 μL of medium and incubated in 500 μL of fresh medium for 3 days. 3 days later, 200 μL of medium per well was discarded. 60 μL of CTG was added to the wells, and the plates were placed at room temperature for 15 minutes in the dark. 100 μL of medium from each well of the 24-well plates was transferred to 96-well plates. The chemiluminescence signal values were read with an M5 full-band multi-mode-function microplate reader, and integration=750 ms. The compounds of control 1 and control 2 were used as controls.

[6] = Hepatomicrosome stability, human; conditions: for Remaining percentage after 30 minutes: Human, 2 μM
Protocol: (§4) 1a) With NADPH: 10 μL of 20 mg/mL of hepatomicrosome and 40 μL of 10 mM of NADPH were added to medium. The final concentrations of hepatomicrosome and NADPH were 0.5 mg/mL and 1 mM, respectively.
(§5) 1b) Without NADPH: 10 μL of 20 mg/mL hepatomicrosome and 40 μL of ultra-pure H2O were added to medium. The final concentration of hepatomicrosome was 0.5 mg/mL.
(§6) 3) 3) Aliquots of 50 μL from the reaction solutions at 0 minute and 30 minutes were taken. The reaction solutions were stopped by adding 4 volumes of cold acetonitrile and 4 internal standards (IS internal standard, 100 nM of Alprazolam, 200 nM of caffeine, 200 nM of Labetalol, and 2 μM of Ketoprofen) to stop the reaction solution. The samples were centrifuged at 3,220 g for 40 minutes. Aliquots of 100 μL of the supernatants were mixed with 100 μL of ultra-pure H2O. Then, the mixtures were used for LC-MS/MS analysis. All experiments were performed in duplicate. The test results were as follow.

[7] = tested on: H460 cell line; assay: Cytotoxicity comparison of TH-302 and compound 01 on H460 at different test times; format: cell-based, human; conditions: for IC50: Homo sapiens, NCI-H460, 2 h, H460, exposure for 2 hours, air
Description: The cytotoxicity test results of TH-302 and compound 01 on H460 cell line under different test times in the same laboratory, the same operator, and the same experimental conditions.

[8] = tested on: H460; assay: Cytotoxicity on cell lines of different species: H460; format: cell-based; conditions: NCI-H460, 72 h; H460, Human; exposure time: 3 days
[9] = Hepatomicrosome stability, dog; conditions: for Remaining percentage after 30 minutes: Dog, 2 μM
Protocol: as §4, §5, §6

[10] = Plasma stability, human; format: in vitro ADME; conditions: 5 μM, 37° C., after 30 minutes
Protocol: as §1, §2
Aliquots of 50 μL of labelled plasma were transferred to new tubes and incubated in a water bath at 37° C. at approximately 60 rpm for 2 hours. The test was performed in duplicate. […] 50 μL of the labeled plasma was added to new tubes containing 300 μL of the quench solution of room temperature, i.e., the sample with a preparation time of 0. The samples were vortexed to mix for 5 minutes. […] 100 μL of the supernatant was transferred to new plates.

O=[N+]([O-])c1ccc(C(OP(=O)(N2CC2)N2CC2)C(F)(F)F)c2ccccc12 (stereo not drawn) [Compound 01]
Remaining percentage ([1]; Rat plasma, 5 μM, 37° C., after 30 minutes): 52.11% | Stability in plasma (conclusion) ([1]; rat): relatively unstable | Remaining percentage ([2]; Dog plasma, 5 μM, 37° C., after 30 minutes): 85.04% | Stability in plasma (conclusion) ([2]; dog): relatively stable | IC50 ([3]; CHO-AA8, 72 h, AA8, Rat, exposure time: 3 days): 11000 nM | Multiple: Rat/Human ([3]; IC50 AA8 / IC50 H460): 110 | Remaining percentage ([4]; Mouse plasma, 5 μM, 37° C., after 30 minutes): 55.07% | Stability in plasma (conclusion) ([4]; mouse): relatively unstable | IC50 ([5]; NCI-H460, H460, air, read-out: Normoxia: IC50): 331 nM | IC50 ([5]; NCI-H460, H460, hypoxia (N2), read-out: N2: IC50): 23.9 nM | Remaining percentage after 30 minutes ([6]; with NADPH): 96.39% | Remaining percentage after 30 minutes ([6]; without NADPH): 82.15% | Stability in hepatomicrosomes (conclusion) ([6]; human): relatively stable | IC50 ([7]; Time 1): 700 nM | IC50 ([7]; Time 2): 300 nM | IC50 ([7]; Time 3): 500 nM | Multiple TH-302/Compound 01 ([7]; Time 1): 32.9 | Multiple TH-302/Compound 01 ([7]; Time 2): 26.7 | Multiple TH-302/Compound 01 ([7]; Time 3): 6.6 | IC50 [8]: 100 nM | Remaining percentage after 30 minutes ([9]; with NADPH): 31.16% | Remaining percentage after 30 minutes ([9]; without NADPH): 101.62% | Stability in hepatomicrosomes (conclusion) ([9]; dog): unstable | Remaining percentage [10]: 68.68%
